Test results from patent US11357728B2, “Liposome having inner water phase containing sulfobutyl ether cyclodextrin salt” (CSPC ZHONGQI PHARMACEUTICAL TECHNOLOGY (SHIJIAZHUANG) CO., …, priority 2009, dated 2022).

What was measured:
[1] = system: Prostate RM-1 Tumor Model; test: Anti-tumor efficacies of topotecan liposomes on prostate RM-1 tumor model; type: in vivo, female C57 mice; conditions: single i.v. 10 mg/kg; for Tumor volume (mm^3): n = 10, x ± sd
Method: RM-1 […] cancer cells were collected, and diluted with 1640 medium. After dilution, the tumor cell number was modulated to 2.0×10^6 cells/ml. 0.2 mL of the tumor cell suspension containing about 4×10^5 tumor cells was inoculated into forward limb oxter subcutaneous tissue of female C57 mice under aseptic condition. Twelve days after inoculation, mice were randomized by tumor volume into groups and administered with a single i.v. injection at a dose of 10 mg/kg.
The mice were bred normally after administration. Tumor diameters were measured to dynamically evaluate anti-tumor efficacies of different formulations. Tumor volume (TV) was calculated with the following formula: TV=½×a×b^2, in which a and b represent length and width, respectively.
The tumor volumes were calculated by using the measurement results. The experiment data were analyzed using SPSS 11.5 statistics software.

KM mice = test: Toxicity of liposomal formulations in KM mice
[2] = dosage level 40.6 mg/kg topotecan, two female KM mice per group, 14 days

CC[C@@]1(O)C(=O)OCc2c1cc1n(c2=O)Cc2cc3c(CN(C)C)c(O)ccc3nc2-1 [Free topotecan, topotecan]
suppression of tumor growth in comparison with 5% glucose for injection as control ([1]; RM-1 tumor model): did not significantly suppress the growth of tumor
Tumor volume (mm^3) ([1]; day 0 after administration): 223.0 ± 65.7 mm^3
Tumor volume (mm^3) ([1]; day 2 after administration): 484.0 ± 154.7 mm^3
Tumor volume (mm^3) ([1]; day 4 after administration): 606.0 ± 183.1 mm^3
Tumor volume (mm^3) ([1]; day 6 after administration): 1060.7 ± 393.0 mm^3
Tumor volume (mm^3) ([1]; day 8 after administration): 1301.8 ± 563.7 mm^3
Tumor volume (mm^3) ([1]; day 9 after administration): 1628.5 ± 835.4 mm^3
Tumor volume (mm^3) ([1]; day 13 after administration): 3592.9 ± 1523.5 mm^3
Tumor volume (mm^3) ([1]; day 15 after administration): 6639.3 ± 2388.2 mm^3
Number of Animals with >15% weight loss (KM mice; dosage level 32.5 mg/kg topotecan, two female KM mice per group, 14 days): 1
Number of Animals with >15% weight loss (KM mice; [2]): 2
number of dead animals (KM mice; [2]): 1
order of toxicity (KM mice; topotecan formulations, KM mice): free topotecan<liposome having SBE-CD/TA as inner water phase<liposome having sucrose octasulfate as inner water phase
